Source: patent US20200270309A1, “MALEIMIDE GROUP-MODIFIED ANGIOGENESIS INHIBITOR HM-1 AND USE THEREOF” (NANJING ANJI BIOLOGICAL TECHNOLOGY CO., LTD, priority 2017, published 2020)
Peptide text beside a SMILES is read from it. * marks the point of attachment. X74 = O=C1C=CC(=O)N1c1cccc(CCCCCCCCCCC(=O)*)c1; X59 = O=C1C=CC(=O)N1c1cccc(CCCCCCCCC(=O)*)c1; X61 = O=C1C=CC(=O)N1c1cccc(CCCC(=O)*)c1; X75 = O=C1C=CC(=O)N1c1cccc(CC(=O)*)c1

Key:
[1] = system: retinal vascular endothelial nuclei; assay: Neovascularization in a rat model of premature retinopathy; type: in vivo, rats; conditions: dose 0.05 μM in the vitreous chamber from day 7 of modeling for one week; counted on day 14; oxygen-induced neonatal rats
Outline: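 Newborn rats kept 7 d in chamber alternating 80% and 10% O2 every 24 h (23 °C), then room air. Intravitreal injection of test agents on day 7, saline for model and control; eyes taken day 14, HE-stained 4 μm sections. Endothelial nuclei breaching retinal inner limiting membrane counted, averaged per section per eye (10 sections).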

[2] = system: corneal neovascularization; assay: Corneal neovascularization induced by alkali burn in BALB/c mice; type: in vivo; set-up: Inhibition rate (corneal neovascularization): concentration or dose not given beside the values; conditions: day 14 after alkali burn, vitreous injection once a day for 1 week
adjuvant arthritis = assay: Rat adjuvant arthritis (AA) animal model; type: in vivo, SD rats; conditions: 4.0 mg/kg; for Clinical score: intravenous in the tail once every five days from day 10, four paws scored 0-4, max 16, mean±SD; for Joint swelling degree / Left and right paw swelling degree: intravenous in the tail once every five days from day 10, mean±SD
[3] = system: collagen-induced arthritis; assay: Mouse collagen-induced arthritis (CIA) animal model; type: in vivo; conditions: DBA/1 mice CIA model, dose 4.0 mg/kg, subcutaneous from day 30, n=10; for Clinical score: highest score 16
[4] = system: IL-1β production by mouse peritoneal macrophages; assay: IL-1β production by mouse peritoneal macrophages (ELISA); type: cell-based; conditions: for Inhibition rate: IL-1β production, vs model group; for IL-1β: mouse peritoneal macrophages, 48 h, ELISA
Outline: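 Starch-elicited (6%, i.p.) mouse peritoneal macrophages, 2×10^6 cells/mL in RPMI 1640, adhered 3 h; non-adherent cells washed off. Polypeptides added at low, medium and high concentrations, Dex as positive control; cultured 48 h, supernatant IL-1β measured.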

HUVECs = assay: Transwell migration inhibition on HUVECs; type: cell-based, human; conditions: for Inhibition rate (%): HUVEC migration vs blank control; for Cell migration number (Mean ± SD): HUVECs, transwell, 24 h
splenic lymphocytes = assay: Proliferation of splenic lymphocytes in mice (ConA, MTT); type: cell-based; conditions: ConA-stimulated mouse splenic lymphocytes, 48 h
Outline: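 Mouse splenocytes (5×10^6 cells/mL, RPMI 1640 with 10% calf serum, red cells lysed) stimulated with ConA plus varying polypeptide concentrations, with blank, ConA-only and Dex groups, 48 h at 37° C. MTT added for 4 h, formazan dissolved in DMSO, OD read at 570 nm; five replicates.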

SMILES	Nuclei count (retinal vascular endothelial nuclei, average per section per eyeball) [1]	Inhibition rate (corneal neovascularization) [2] [%]	MVD (corneal microvessel density) [2]	Clinical score (adjuvant arthritis)	Joint swelling degree (adjuvant arthritis) [mm]	Left and right paw swelling degree (adjuvant arthritis) [mm]	Joint swelling degree (mm) [3] [mm]	Left and right paw swelling degree (mm) [3] [mm]	Clinical score [3]	Inhibition rate ([4]; dose 0.05 μM) [%]	IL-1β ([4]; dose 0.05 μM) [pg/mL]	Inhibition rate ([4]; dose 0.1 μM) [%]	IL-1β ([4]; dose 0.1 μM) [pg/mL]	Inhibition rate ([4]; dose 0.2 μM) [%]	IL-1β ([4]; dose 0.2 μM) [pg/mL]	Inhibition rate (%) (HUVECs; dose 0.05 μM)	Inhibition rate (%) (HUVECs; dose 0.1 μM)	Inhibition rate (%) (HUVECs; dose 0.2 μM)	Cell migration number (Mean ± SD) (HUVECs; dose 0.05 μM)	Cell migration number (Mean ± SD) (HUVECs; dose 0.1 μM)	also measured
C[C@H](NC(=O)CNC(=O)[C@H](CCCNC(=N)N)NC(=O)CCCCCCCCc1cccc(N2C(=O)C=CC2=O)c1)C(=O)N[C@@H](CC(=O)O)C(=O)N[C@@H](CCCNC(=N)N)C(=O)N[C@@H](C)C(=O)NCC(=O)NCC(=O)NCC(=O)NCC(=O)N[C@@H](CCCNC(=N)N)C(=O)NCC(=O)N[C@@H](CC(=O)O)C(=O)O [X32] (X59-RGADRAGGGGRGD-OH)	8.394 ± 2.665	50.25	33.45 ± 6.453	5.81 ± 1.14	0.81 ± 0.18	3.91 ± 0.64	0.81 ± 0.16	0.81 ± 0.13	9.06 ± 1.26	18.02	771.56 ± 13.41	28.17	676.06 ± 19.82	43.31	533.56 ± 18.54	41.92	47.67	56.61	622.57 ± 49.41	560.86 ± 50.91	Cell migration number (Mean ± SD) (HUVECs; dose 0.2 μM): 465.06 ± 48.23; A570 nm/A630 nm (splenic lymphocytes; polypeptide dose 0.05 μM): 0.6117 ± 0.0672; Inhibition rate (%) (splenic lymphocytes; polypeptide dose 0.05 μM): 9.43%; A570 nm/A630 nm (splenic lymphocytes; polypeptide dose 0.1 μM): 0.5954 ± 0.0678; Inhibition rate (%) (splenic lymphocytes; polypeptide dose 0.1 μM): 11.84%; A570 nm/A630 nm (splenic lymphocytes; polypeptide dose 0.2 μM): 0.5428 ± 0.0408; Inhibition rate (%) (splenic lymphocytes; polypeptide dose 0.2 μM): 19.63%
C[C@H](NC(=O)CNC(=O)[C@H](CCCNC(=N)N)NC(=O)Cc1cccc(N2C(=O)C=CC2=O)c1)C(=O)N[C@@H](CC(=O)O)C(=O)N[C@@H](CCCNC(=N)N)C(=O)N[C@@H](C)C(=O)NCC(=O)NCC(=O)NCC(=O)NCC(=O)N[C@@H](CCCNC(=N)N)C(=O)NCC(=O)N[C@@H](CC(=O)O)C(=O)O [X25] (X75-RGADRAGGGGRGD-OH)	8.923 ± 1.954	52.90	31.67 ± 6.856	5.72 ± 1.11	0.71 ± 0.16	3.76 ± 0.09	0.71 ± 0.18	0.74 ± 0.14	9.21 ± 1.33	20.57	747.54 ± 18.25	24.22	713.21 ± 19.17	29.89	659.86 ± 10.24	48.06	52.24	58.00	556.73 ± 40.91	511.9 ± 68.58	Cell migration number (Mean ± SD) (HUVECs; dose 0.2 μM): 450.13 ± 52.7; A570 nm/A630 nm (splenic lymphocytes; polypeptide dose 0.05 μM): 0.5838 ± 0.0861; Inhibition rate (%) (splenic lymphocytes; polypeptide dose 0.05 μM): 13.56%; A570 nm/A630 nm (splenic lymphocytes; polypeptide dose 0.1 μM): 0.5673 ± 0.0906; Inhibition rate (%) (splenic lymphocytes; polypeptide dose 0.1 μM): 16.01%; A570 nm/A630 nm (splenic lymphocytes; polypeptide dose 0.2 μM): 0.4576 ± 0.1221; Inhibition rate (%) (splenic lymphocytes; polypeptide dose 0.2 μM): 32.25%
C[C@H](NC(=O)CNC(=O)[C@H](CCCNC(=N)N)NC(=O)CCCCCCCCCCc1cccc(N2C(=O)C=CC2=O)c1)C(=O)N[C@@H](CC(=O)O)C(=O)N[C@@H](CCCNC(=N)N)C(=O)N[C@@H](C)C(=O)NCC(=O)NCC(=O)NCC(=O)NCC(=O)N[C@@H](CCCNC(=N)N)C(=O)NCC(=O)N[C@@H](CC(=O)O)C(=O)O [X34] (X74-RGADRAGGGGRGD-OH)	7.292 ± 3.827	48.36	34.72 ± 6.051	5.66 ± 1.09	0.83 ± 0.17	3.84 ± 0.88	0.84 ± 0.13	0.72 ± 0.15	8.8 ± 1.34	18.47	767.28 ± 18.52	19.97	753.21 ± 13.97	28.14	676.31 ± 16.02	47.95	52.08	53.69	557.95 ± 42.69	513.64 ± 43.27	Cell migration number (Mean ± SD) (HUVECs; dose 0.2 μM): 496.39 ± 56.37; A570 nm/A630 nm (splenic lymphocytes; polypeptide dose 0.05 μM): 0.5469 ± 0.0655; Inhibition rate (%) (splenic lymphocytes; polypeptide dose 0.05 μM): 19.03%; A570 nm/A630 nm (splenic lymphocytes; polypeptide dose 0.1 μM): 0.4573 ± 0.1104; Inhibition rate (%) (splenic lymphocytes; polypeptide dose 0.1 μM): 32.29%; A570 nm/A630 nm (splenic lymphocytes; polypeptide dose 0.2 μM): 0.4431 ± 0.1192; Inhibition rate (%) (splenic lymphocytes; polypeptide dose 0.2 μM): 34.39%
C[C@H](NC(=O)CNC(=O)[C@H](CCCNC(=N)N)NC(=O)CCCc1cccc(N2C(=O)C=CC2=O)c1)C(=O)N[C@@H](CC(=O)O)C(=O)N[C@@H](CCCNC(=N)N)C(=O)N[C@@H](C)C(=O)NCC(=O)NCC(=O)NCC(=O)NCC(=O)N[C@@H](CCCNC(=N)N)C(=O)NCC(=O)N[C@@H](CC(=O)O)C(=O)O [X27] (X61-RGADRAGGGGRGD-OH)	8.358 ± 1.328	43.93	37.70 ± 3.805	5.63 ± 1.12	0.74 ± 0.17	3.86 ± 0.85	0.78 ± 0.19	0.75 ± 0.13	8.75 ± 1.43	25.91	697.32 ± 17.18	30.97	649.68 ± 18.74	33.62	624.72 ± 14.38	46.39	49.01	53.38	574.65 ± 60.83	546.51 ± 46.67	Cell migration number (Mean ± SD) (HUVECs; dose 0.2 μM): 499.65 ± 59.06; A570 nm/A630 nm (splenic lymphocytes; polypeptide dose 0.05 μM): 0.5388 ± 0.0643; Inhibition rate (%) (splenic lymphocytes; polypeptide dose 0.05 μM): 20.23%; A570 nm/A630 nm (splenic lymphocytes; polypeptide dose 0.1 μM): 0.5231 ± 0.0967; Inhibition rate (%) (splenic lymphocytes; polypeptide dose 0.1 μM): 22.55%; A570 nm/A630 nm (splenic lymphocytes; polypeptide dose 0.2 μM): 0.4792 ± 0.0849; Inhibition rate (%) (splenic lymphocytes; polypeptide dose 0.2 μM): 29.08%
